These are literature values, as cited in PMC11946513, “Modulation of the substrate preference of a MYST acetyltransferase by a scaffold protein” (The Journal of Biological Chemistry, 2025).

In general, Ki refers to a dissociation constant, usually derived from enzyme kinetics or from competition with a known ligand.

The target in the series is KAT6A MYST domain. As to conditions: binding to the KAT6A MYST domain; acetyl-CoA competitive; read-out: inhibition constant (Ki). The protocol:
The active enzyme concentration for each form of KAT6A was obtained through tight-binding inhibition ([48]) by PF-9363, which binds to the KAT6A MYST domain with an inhibition constant (Ki) of ≈0.3 nM ([6]).

Regarding `COc1cccc(OC)c1S(=O)(=O)Nc1noc2cc(Cn3cccn3)cc(OC)c12` [PF-9363], the Ki is approximately 0.3 nM.
